Data: paper PMC6010047, “Design, synthesis and biological evaluation of novel hydroxy-phenyl-1H-benzimidazoles as radical scavengers and UV-protective agents” (Journal of Enzyme Inhibition and Medicinal Chemistry, 2017)
Entries after “also recorded” stand apart in the source; their conditions may differ. Read-outs that look alike come from different tables or passages of the source.

Legend:
[1] = 1,1-Diphenyl-2-picryl-hydrazyl radical (DPPH) assay; type: biochemical; conditions: Trolox equivalents; mean ± SE of three experiments
Method: To 1.5 mL DPPH methanolic solution (0.5 mM) was added 0.750 mL of sample solution proper diluted. Samples absorbance measurements were evaluated with a UV-VIS spectrophotometer (Thermo Spectronic Helios γ, Cambridge, UK) at fixed wavelength of 517 nm. Blank sample was prepared adding methanol to DPPH solution and Trolox was used as standard reference to achieve a calibration curve. The radical-scavenging activity is expressed as inhibition ratio of initial concentration of DPPH radical and is calculated according to the formula: Inhibition percentage (Ip) = [(AB-As)/AB]·100; where AB and As are, respectively, the absorbance values of blank reaction and of the tested sample[25].

[2] = Ferric reducing antioxidant of potency (FRAP) assay; type: biochemical; conditions: Trolox equivalents; mean ± SE of three experiments
Method: The ferric reducing ability of each standard solution was measured according to a modified protocol described by Guihua et al.[26]. The reagent for analysis was freshly prepared by mixing the following solutions in the reported ratio 10/1/1 (v:v:v) (i) 0.1 M acetate buffer pH 3.6, (ii) TPTZ (2,4,6-Tri(2-pyridyl)-s-triazine) 10 mmol/L in 40 mmol/HCl, (iii) ferric chloride 20 mmol/L. To a 1.9 mL of reagent were added 0.1 mL of sample proper diluted or solvent when blank was performed. Readings at fixed wavelength of the absorption maximum (593 nm) were done after 30 min, using a UV-VIS spectrophotometer; it was evaluated the absorbance increase of sample solution against the absorbance of blank reaction as parameter to calculate the antioxidant activity. The antioxidant activity is given as Trolox activity since this standard was used to perform the calibration curves.

[3] = Photochemiluminescence (PCL) method, ACL kit; type: biochemical; conditions: pure compound; Trolox equivalents; mean ± SE of three experiments
Method: (§1) PCL assay, based on the methodology of Popov and Lewin[23], was used to measure the antioxidant activity of synthesized compounds with a Photochem® apparatus (Analytik Jena, Leipzig, Germany) against superoxide anion radicals generated from luminol, a photosensitizer, when exposed to UV light (Double Bore® phosphor lamp, output 351 nm, 3 mWatt/cm^2). The antioxidant activity was measured using ACL (Antioxidant Capacity of Liposoluble substance) kit provided by the manufacturer designed to measure the antioxidant activity of lipophilic compounds[24]. […] The areas under the curves were calculated using the PCLsoft control and analysis software. […] This inhibition was used as a parameter for quantification and related to the decrease in the integral of PCL intensities caused by varying concentrations of Trolox. The observed inhibition of the signal was plotted against the concentration of Trolox added to the assay medium. The concentration of the added tested compounds was such that the generated luminescence during the 180-s sampling interval fell within the limits of the standard curve. The antioxidant assay was carried out in triplicate for each sample, and 20 μL of the diluted compound in HPLC-grade methanol (ACL) was sufficient to correspond to the standard curve.

[4] = PCL antioxidant activity of finished formulations; type: biochemical; conditions: 3% (w/w) compound in O/W formulation
Method: as §1
It was decided to use a standard formulation oil in water (O/W).
In particular, molecules with phenolic hydroxyl in the ortho position on the phenyl ring (4, 5, 9, 10 and 13) had better and higher UVA/UVB ratio and critical wavelength, although they have the SPF value less than lead compound. Formulation containing products 2 and 14, which have a phenolic hydroxyl at the para position on the phenyl ring, have shown good values in terms of SPF, greater UVA protection factor, critical wavelength and also higher UVA/UVB ratio than PBSA, but yet lower than the molecules containing hydroxyl on the phenyl ring in ortho. […] Compound 8 has lower SPF than 3, but higher than PBSA; in comparison with 3, molecules 8 and 12 presented higher UVA/UVB ratio and critical wavelength. Regarding compounds with three hydroxyls on phenyl ring, they have good UVA filtering parameters, their critical wavelengths are the highest and SPF is higher than PBSA for molecule 6, while SPF of 15 is slightly lower and decreases further in molecule 11. Thus, it can be observed that parameters are mainly influenced by the number and position of the hydroxyl groups on the phenyl ring rather than the substituent in the 5-position of benzimidazole. Concomitantly, all formulations were analyzed to assess whether the antioxidant power was maintained. […] In Table 4, the antioxidant activity, measured by PCL method, of finished formulations is reported; as it can be seen results were in agreement with that obtained testing the pure compounds. […] Formulations containing compounds 3, 8 and 12 presented highest antioxidant capabilities; these are followed, but with important decrease in antioxidant capacity, by formulations with compounds 6, […] and 15 that have three hydroxyl moieties on phenyl ring.

NCTC-2544 cells = assay: Phototoxicity / cellular photoprotection, UVA or UVB irradiation, MTT test; conditions: for % Cell survival UVA 20 J/cm^2 / % Cell survival UVB 0.5 J/cm^2 / % Cell survival UVB 1 J/cm^2: 50 μM, vs nonirradiated cells (100%), 48 h after irradiation; for phototoxic effect (cell survival vs irradiated control): NCTC-2544, UVA/UVB irradiation; for viability at 20 µM / viability at 50 µM: Homo sapiens, NCTC-2544, light or radiation study, 48 h; for cell survival in relation to the irradiated control: after UVB irradiation 1 J/cm^2
Method: An immortalized, nontumorigenic cell line of human keratinocytes (NCTC-2544) was grown in a DMEM medium (Sigma-Aldrich Milan, Italy), supplemented with 115 units/mL of penicillin G, 115 μg/mL streptomycin, and 10% fetal calf serum (Invitrogen, Milan, Italy). Individual wells of a 96-well tissue culture microtiter plates (Falcon, Becton–Dickinson) were inoculated with 100 μL of complete medium containing 5 × 10^3 NCTC-2544. The plates were incubated at 37 °C in a humidified (5% CO2) incubator for 18 h prior to the experiments.
Two HPW 125 Philips lamps, mainly emitting at 365 nm, were used for UVA irradiation experiments. The spectral irradiance of the source was 4.0 mWcm^−^2 as measured at the sample level by a Cole-Parmer Instrument Company radiometer (Niles, IL) equipped with a 365-CX sensor. One or two PL-S 9 W/12 Philips lamps (280–370 nm; peak at 315 nm) were used for UVB irradiation experiments. To restrict the incident radiation to the range 305–370 nm, a glass filter (Schott SWG-305) was used. Total energy was detected by the same equipped with a sensor (model CX-312).
After medium removal, 100 μL of the drug solution, dissolved in DMSO and diluted with Hank’s Balanced Salt Solution (HBSS pH =7.2), was added to each well, incubated at 37 °C for 30 min, and then irradiated (20 J/cm^2 for UVA and 0.5 and 1 J/cm^2 for UVB). After irradiation, the solution was replaced with the medium and the plates were further incubated for 48 h. Cell viability was assayed by the MTT [(3–(4,5-dimethylthiazol-2-yl)-2,5 diphenyl tetrazolium bromide)] test as previously described by Mosmann[27].
Molecules were verified for their photocytotoxicity in the same cell line; the cells were treated with 50 μM solutions of compound and after 30 min were irradiated with 20 J/cm^2 UVA or with UVB at two energy amounts: 0.5 J/cm^2 and 1 J/cm^2 UVB. […] After irradiation, the solution was replaced with growth medium and the cells were further incubated for 48 h, and then, cell viability was assessed by MTT assay. […] The phototoxicity of tested molecules was compared with the ratio of cell survival of irradiated keratinocytes without substance (IC = irradiated control).

[5] = Cytotoxicity, MTT test, 72 h; conditions: human, NCTC-2544 keratinocytes (immortalized, nontumorigenic)
[6] = read-out: % Cell survival UVA 20 J/cm^2
[7] = read-out: % Cell survival UVB 0.5 J/cm^2
[8] = read-out: % Cell survival UVB 1 J/cm^2

Row | Compound | DPPH [1] | FRAP [2] [μmolTrolox/mmol] | PCL [3] | PCL of finished formulation [4] | % Cell survival UVA 20 J/cm^2 (NCTC-2544 cells) [%] | % Cell survival UVB 0.5 J/cm^2 (NCTC-2544 cells) [%] | % Cell survival UVB 1 J/cm^2 (NCTC-2544 cells) [%] | phototoxic effect (cell survival vs irradiated control) (NCTC-2544 cells) | IC50 at 72 h [5] [µM] | viability at 20 µM (NCTC-2544 cells; [6]) [%] | viability at 20 µM (NCTC-2544 cells; [7]) [%] | viability at 20 µM (NCTC-2544 cells; [8]) [%] | viability at 50 µM (NCTC-2544 cells; [6]) [%] | viability at 50 µM (NCTC-2544 cells; [7]) [%] | viability at 50 µM (NCTC-2544 cells; [8]) [%] | cell survival in relation to the irradiated control (NCTC-2544 cells)
1 | 2-(2,4-Dihydroxy-phenyl)-1H-benzimidazole [Compound 9] | 16.47 ± 0.54 μmolTrolox/mmol | 37.3 ± 0.35 | 198.53 ± 2.65 μmolTrolox/mmol | 8.66 ± 0.04 μmol Trolox/g formulation | 3.7 ± 0.5 | 1.1 ± 0.3 | 0.5 ± 0.1 | – | – | – | – | – | – | – | – | –
2 | 2-(2-Hydroxy-phenyl)-1H-benzimidazole [Compound 10] | 0.87 ± 0.05 μmolTrolox/mmol | 23.04 ± 0.09 | 10.93 ± 0.05 μmolTrolox/mmol | 0.5 ± 0.02 μmol Trolox/g formulation | 4.8 ± 0.6 | 19.8 ± 2.4 | 3.5 ± 0.3 | phototoxic effect | – | – | – | – | – | – | – | –
3 | O=S(=O)(O)c1ccc2[nH]c(-c3ccc(O)cc3)nc2c1 [Compound 2, 2-(4-Hydroxy-phenyl)-1H-benzimidazole-5-sulfonic acid] | 2.04 ± 0.15 μmolTrolox/mmol | 12.23 ± 0.25 | 11.36 ± 0.08 μmolTrolox/mmol | 0.33 ± 0.03 μmol Trolox/g formulation | – | – | – | – | 26.4 ± 2.7 | 77.3 ± 2.8 | 78 ± 3.5 | 46.7 ± 3.4 | – | – | – | –
4 | O=S(=O)(O)c1ccc2[nH]c(-c3ccc(O)c(O)c3)nc2c1 [Compound 3, 2-(3,4-Dihydroxy-phenyl)-1H-benzimidazole-5-sulfonic acid] | 2145.31 ± 45.8 μmolTrolox/mmol | 2707.29 ± 29.52 | 22,838 ± 836,26 μmolTrolox/mmol | 2212.09 ± 68.35 μmol Trolox/g formulation | – | – | – | – | > 50 | – | – | – | 77.4 ± 4 | 71.5 ± 2.5 | 58.1 ± 2.6 | doubled
5 | O=S(=O)(O)c1ccc2[nH]c(-c3ccccc3O)nc2c1 [Compound 4, 2-(2-Hydroxy-phenyl)-1H-benzimidazole-5-sulfonic acid] | 2.03 ± 0.09 μmolTrolox/mmol | 16.22 ± 0.89 | 2.06 ± 0.05 μmolTrolox/mmol | 0.06 ± 0.02 μmol Trolox/g formulation | – | – | – | – | > 50 | – | – | – | 76.9 ± 2 | 74.3 ± 3.2 | 37.7 ± 1.7 | –
6 | O=S(=O)(O)c1ccc2[nH]c(-c3ccc(O)cc3O)nc2c1 [Compound 5, 2-(2,4-Dihydroxy-phenyl)-1H-benzimidazole-5-sulfonic acid] | 21.41 ± 043 μmolTrolox/mmol | 19.87 ± 0.22 | 159.1 ± 4.3 μmolTrolox/mmol | 0.95 ± 0.02 μmol Trolox/g formulation | – | – | – | – | > 50 | – | – | – | 79 ± 6 | 70.8 ± 3.9 | 38.6 ± 3.7 | –
7 | O=S(=O)(O)c1ccc2[nH]c(-c3ccc(O)c(O)c3O)nc2c1 [Compound 6, 2-(2,3,4-Trihydroxy-phenyl)-1H-benzimidazole-5-sulfonic acid] | 1362.12 ± 133.96 μmolTrolox/mmol | 2713.3 ± 45.17 | 1924.35 ± 101.82 μmolTrolox/mmol | 101.98 ± 1.08 μmol Trolox/g formulation | – | – | – | phototoxic effect | 23.1 ± 2.9 | 18.4 ± 2.3 | 59.3 ± 3.4 | 29.7 ± 2.1 | – | – | – | –
8 | Oc1ccc(-c2nc3ccccc3[nH]2)cc1O [Compound 8, 2-(3,4-Dihydroxy-phenyl)-1H-benzimidazole] | 1974.58 ± 16.89 μmolTrolox/mmol | 2663.21 ± 32.53 | 19190.6 ± 443.18 μmolTrolox/mmol | 2972.107 ± 145.63 μmol Trolox/g formulation | – | – | – | – | > 50 | – | – | – | 62.9 ± 4.3 | 72.8 ± 1 | 43.9 ± 3.4 | –
9 | Oc1ccc(-c2nc3ccccc3[nH]2)c(O)c1O [Compound 11, 2-(2,3,4-Trihydroxy-phenyl)-1H-benzimidazole] | 1811.02 ± 61.7 μmolTrolox/mmol | 2723.19 ± 35.74 | 1614.675 ± 19.95 μmolTrolox/mmol | 153.35 ± 8.14 μmol Trolox/g formulation | – | – | – | phototoxic effect | > 50 | – | – | – | 1.2 ± 0.2 | 45.6 ± 2.6 | 27 ± 2.4 | –
10 | O=C(O)c1ccc2[nH]c(-c3ccc(O)c(O)c3)nc2c1 [Compound 12, 2-(3,4-Dihydroxy-phenyl)-1H-benzimidazole-5-carboxylic acid] | 1771.82 ± 84.75 μmolTrolox/mmol | 2433.28 ± 21.74 | 13174.31 ± 240.68 μmolTrolox/mmol | 1373.39 ± 19.43 μmol Trolox/g formulation | – | – | – | – | > 50 | – | – | – | 74.3 ± 2 | 76.3 ± 3.6 | 64.5 ± 3.5 | doubled
11 | O=S(=O)(O)c1ccc2[nH]c(-c3ccccc3)nc2c1 [PBSA, 2-phenyl-1H-benzimidazole-5-sulfonic acid, reference compound] | devoided of any activity; also recorded: < LOQ^a | – | devoided of any activity; also recorded: < LOQ^a | <LOQ^b | – | – | – | – | > 50 | – | – | – | 74.5 ± 1.4 | 75.2 ± 4.5 | 64.2 ± 3.1 | doubled
